T1: Rbt5(23–219)-Myc-6×His (C. albicans, UniProt Q59UT4 23-219)
T1 construct: Rbt5, C. albicans CFEM protein, residues 23-219: from the predicted signal peptide cleavage site to the predicted GPI anchor addition site; RBT5 nucleotides +67 to +657 cloned EcoRI-XbaI into pPICZalphaA (KB2258); Apo-protein (heme removed with 3 M imidazole); The vector pPICZalphaA may leave a few residues at the N-terminus after the alpha-factor signal is cut; also called rRbt5; recombinant …
T1 sequence: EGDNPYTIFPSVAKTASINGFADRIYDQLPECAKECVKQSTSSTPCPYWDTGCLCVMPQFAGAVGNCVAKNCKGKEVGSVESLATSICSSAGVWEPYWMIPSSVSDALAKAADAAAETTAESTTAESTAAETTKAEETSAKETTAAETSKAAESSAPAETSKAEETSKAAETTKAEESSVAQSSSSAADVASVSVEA


Experiments:
Rbt5 = target: T2, Rbt5 (Candida albicans, UniProt Q59UT4); experiment: ITC; also hemin-agarose pull-down, size exclusion co-elution, Soret peak; format: binding
T2 construct: Rbt5_23–219 (C-terminal Myc-6×His, expressed in Pichia pastoris)

Pga7 = target: T3, Pga7 (Candida albicans, UniProt Q59UT5); experiment: ITC; also Soret-shift UV-Vis titration ([…]), 1H NMR, hemin-agarose pull-down; format: binding
T3 construct: Pga7_18–195 (C-terminal Myc-6×His, expressed in Pichia pastoris)

Rbt5(23–219)-Myc-6×His = target: T1, Rbt5(23–219)-Myc-6×His; experiment: SPR; Biacore T200; apo-Pga7(18–195), apo-Rbt5(23–219) and apo-Rbt5(23–219) D72A immobilised on a CM-5 chip by amine chemistry; 3 µM holo-Pga7(18–195) (with heme) injected for 60 sec; double-blanked against an empty cell and buffer; settings: both partners purified

Molecule	Kd (Rbt5) [µM]	Kd (Pga7) [nM]	binding result (Rbt5(23–219)-Myc-6×His)
C=CC1=C(C)C2=Cc3c(C=C)c(C)c4[n]3[Fe]([Cl])[n]3c(c(C)c(CCC(=O)O)c3=CC3=NC(=C4)C(C)=C3CCC(=O)O)=CC1=N2 [hemin]	5.4	65	
Pga7(18–195)-Myc-6×His (domain or fragment, Pga7, C. albicans CFEM protein, residues 18-195: from the predicted signal peptide cleavage site to the predicted GPI anchor addition site; PGA7 nucleotides +52 to +585 cloned EcoRI-XbaI into pPICZalphaA (KB2259); Used as apo-protein (heme removed) or as holo-protein (loaded with heme, not covalent); both are this one construct; The vector pPICZalphaA may leave a few residues at the N-terminus …) NFGTYPKVPKTASINGFADPIYDLLPDCAKECVKFSTSNTPCPYWDTGCFCVMPQWAGLVGQCVAQKCKGEDVASARFLATSLCSVVGANTWMMPASISSMLSTAAGDAKEVTTIEGKTAKSWVTAPGSAAGSVVSETGSASETGSSESAQSTTTGSSSTGSSSTDSSSSSSSSPSSS			binds
